# From paper PMC9848257, “Design and synthesis of novel rigid dibenzo[b,f]azepines through ring closure technique as promising anticancer candidates against leukaemia and acting as selective topoisomerase II inhibitors and DNA intercalators” (Journal of Enzyme Inhibition and Medicinal Chemistry, 2023)
# How the values were obtained:
# HCC-2998 = assay: NCI-60 one-dose screen, HCC-2998; type: cell-based; settings: Homo sapiens; HCC-2998, colon cancer; single dose 10 μM; read-out: Growth inhibition %
# Method: (§1) Anti-proliferative effects of the counterparts 4a–g and 5a–g were screened against 60 human cancer cell lines, following the Developmental Therapeutics Program protocol, National Cancer Institute[35].
# (§2) The anti-tumour activity of the fourteen synthesised congeners was investigated at the NCI against a panel of 60 cancer cell lines (NCI-60 Cell One-Dose Screen). The tested dibenzo[b,f]azepine derivatives were screened at a single dose level (10 μM), Table 1.
# MDA-MB-468 = assay: NCI-60 one-dose screen, MDA-MB-468; type: cell-based; settings: Homo sapiens; MDA-MB-468, breast cancer; single dose 10 μM; read-out: Growth inhibition %
# Method: as §1, §2
# OVCAR-4 = assay: NCI-60 one-dose screen, OVCAR-4; type: cell-based; settings: Homo sapiens; OVCAR-4, ovarian cancer; single dose 10 μM; read-out: Growth inhibition %
# Method: as §1, §2
# NCI-H522 = assay: NCI-60 one-dose screen, NCI-H522; type: cell-based; settings: Homo sapiens; NCI-H522, non-small cell lung cancer; single dose 10 μM; read-out: Growth inhibition %
# Method: as §1, §2
# A549-ATCC = assay: NCI-60 one-dose screen, A549-ATCC; type: cell-based; settings: Homo sapiens, non-small cell lung cancer, single dose 10 μM, read-out: Growth inhibition %
# Method: as §1, §2
# K-562 = assay: NCI-60 one-dose screen, K-562; type: cell-based; settings: Homo sapiens, K562; K-562, leukaemia; single dose 10 μM; read-out: Growth inhibition %
# Method: as §1, §2
# CCRF-CEM = assay: NCI-60 one-dose screen, CCRF-CEM; type: cell-based; settings: Homo sapiens, leukaemia, single dose 10 μM, read-out: Growth inhibition %
# Method: as §1, §2
# NCI-H226 = assay: NCI-60 one-dose screen, NCI-H226; type: cell-based; settings: Homo sapiens; NCI-H226, non-small cell lung cancer; single dose 10 μM; read-out: Growth inhibition %
# Method: as §1, §2
# TK-10 = assay: NCI-60 one-dose screen, TK-10; type: cell-based; settings: Homo sapiens; TK-10, renal cancer; single dose 10 μM; read-out: Growth inhibition %
# Method: as §1, §2
# MDA-MB-435 = assay: NCI-60 one-dose screen, MDA-MB-435; type: cell-based; settings: Homo sapiens; MDA-MB-435, melanoma; single dose 10 μM; read-out: Growth inhibition %
# Method: as §1, §2
# UACC-62 = assay: NCI-60 one-dose screen, UACC-62; type: cell-based; settings: Homo sapiens; UACC-62, melanoma; single dose 10 μM; read-out: Growth inhibition %
# Method: as §1, §2
# SN12C = assay: NCI-60 one-dose screen, SN12C; type: cell-based; settings: Homo sapiens, renal cancer, single dose 10 μM, read-out: Growth inhibition %
# Method: as §1, §2
# LOX IMVI = assay: NCI-60 one-dose screen, LOX IMVI; type: cell-based; settings: Homo sapiens, melanoma, single dose 10 μM, read-out: Growth inhibition %
# Method: as §1, §2
# UACC-257 = assay: NCI-60 one-dose screen, UACC-257; type: cell-based; settings: Homo sapiens; UACC-257, melanoma; single dose 10 μM; read-out: Growth inhibition %
# Method: as §1, §2
# KM12 = assay: NCI-60 one-dose screen, KM12; type: cell-based; settings: Homo sapiens; KM12, colon cancer; single dose 10 μM; read-out: Growth inhibition %
# Method: as §1, §2
# IGROV1 = assay: NCI-60 one-dose screen, IGROV1; type: cell-based; settings: Homo sapiens, IGROV-1; IGROV1, ovarian cancer; single dose 10 μM; read-out: Growth inhibition %
# Method: as §1, §2
# SR = assay: NCI-60 one-dose screen, SR; type: cell-based; settings: Homo sapiens, leukaemia, single dose 10 μM, read-out: Growth inhibition %
# Method: as §1, §2
# SF-295 = assay: NCI-60 one-dose screen, SF-295; type: cell-based; settings: Homo sapiens; SF-295, CNS cancer; single dose 10 μM; read-out: Growth inhibition %
# Method: as §1, §2
# NCI/ADR-RES = assay: NCI-60 one-dose screen, NCI/ADR-RES; type: cell-based; settings: Homo sapiens, ovarian cancer, single dose 10 μM, read-out: Growth inhibition %
# Method: as §1, §2
# T-47D = assay: NCI-60 one-dose screen, T-47D; type: cell-based; settings: Homo sapiens, T47D, breast cancer, single dose 10 μM, read-out: Growth inhibition %
# Method: as §1, §2
# SK-MEL-5 = assay: NCI-60 one-dose screen, SK-MEL-5; type: cell-based; settings: Homo sapiens; SK-MEL-5, melanoma; single dose 10 μM; read-out: Growth inhibition %
# Method: as §1, §2
# SNB-19 = assay: NCI-60 one-dose screen, SNB-19; type: cell-based; settings: Homo sapiens; SNB-19, CNS cancer; single dose 10 μM; read-out: Growth inhibition %
# Method: as §1, §2
# U251 = assay: NCI-60 one-dose screen, U251; type: cell-based; settings: Homo sapiens, U-251; U251, CNS cancer; single dose 10 μM; read-out: Growth inhibition %
# Method: as §1, §2
# CAKI-1 = assay: NCI-60 one-dose screen, CAKI-1; type: cell-based; settings: Homo sapiens; CAKI-1, renal cancer; single dose 10 μM; read-out: Growth inhibition %
# Method: as §1, §2
smiles,measurement,setting,value
"O=C(NNC(=O)N1c2ccccc2C=Cc2ccccc21)c1ccccc1 [Compound 4a, N′-Benzoyl-5H-dibenzo[b,f]azepine-5-carbohydrazide]",inhibition at 10 µM,HCC-2998,< 10%
same,inhibition at 10 µM,MDA-MB-468,< 10%
same,inhibition at 10 µM,OVCAR-4,< 10%
same,inhibition at 10 µM,NCI-H522,< 10%
same,inhibition at 10 µM,A549-ATCC,< 10%
same,inhibition at 10 µM,K-562,< 10%
same,inhibition at 10 µM,CCRF-CEM,< 10%
same,inhibition at 10 µM,NCI-H226,< 10%
same,inhibition at 10 µM,TK-10,< 10%
same,inhibition at 10 µM,MDA-MB-435,< 10%
same,inhibition at 10 µM,UACC-62,< 10%
same,inhibition at 10 µM,SN12C,< 10%
same,inhibition at 10 µM,LOX IMVI,< 10%
same,inhibition at 10 µM,UACC-257,< 10%
same,inhibition at 10 µM,KM12,< 10%
same,inhibition at 10 µM,IGROV1,< 10%
same,inhibition at 10 µM,SR,< 10%
same,inhibition at 10 µM,SF-295,< 10%
same,melting point,,222 to 224 °C
same,inhibition at 10 µM,NCI/ADR-RES,< 10%
same,inhibition at 10 µM,T-47D,< 10%
same,inhibition at 10 µM,SK-MEL-5,< 10%
same,inhibition at 10 µM,SNB-19,< 10%
same,inhibition at 10 µM,U251,< 10%
same,inhibition at 10 µM,CAKI-1,< 10%
"O=C(NNC(=O)N1c2ccccc2C=Cc2ccccc21)c1ccc(Br)cc1 [Compound 4b, N′-(4-Bromobenzoyl)-5H-dibenzo[b,f]azepine-5-carbohydrazide]",inhibition at 10 µM,HCC-2998,< 10%
same,inhibition at 10 µM,MDA-MB-468,< 10%
same,inhibition at 10 µM,OVCAR-4,< 10%
same,inhibition at 10 µM,NCI-H522,< 10%
same,inhibition at 10 µM,A549-ATCC,18.5%
same,inhibition at 10 µM,K-562,< 10%
same,inhibition at 10 µM,CCRF-CEM,< 10%
same,inhibition at 10 µM,NCI-H226,< 10%
same,inhibition at 10 µM,TK-10,< 10%
same,inhibition at 10 µM,MDA-MB-435,< 10%
same,inhibition at 10 µM,UACC-62,< 10%
same,inhibition at 10 µM,SN12C,< 10%
same,inhibition at 10 µM,LOX IMVI,< 10%
same,inhibition at 10 µM,UACC-257,14.4%
same,inhibition at 10 µM,KM12,< 10%
same,inhibition at 10 µM,IGROV1,< 10%
same,inhibition at 10 µM,SR,< 10%
same,inhibition at 10 µM,SF-295,< 10%
same,melting point,,237 to 239 °C
same,inhibition at 10 µM,NCI/ADR-RES,< 10%
same,inhibition at 10 µM,T-47D,< 10%
same,inhibition at 10 µM,SK-MEL-5,< 10%
same,inhibition at 10 µM,SNB-19,< 10%
same,inhibition at 10 µM,U251,< 10%
same,inhibition at 10 µM,CAKI-1,< 10%
"O=C(NNC(=O)N1c2ccccc2C=Cc2ccccc21)c1ccc(Cl)cc1 [Compound 4c, N′-(4-Chlorobenzoyl)-5H-dibenzo[b,f]azepine-5-carbohydrazide]",inhibition at 10 µM,HCC-2998,< 10%
same,inhibition at 10 µM,MDA-MB-468,< 10%
same,inhibition at 10 µM,OVCAR-4,< 10%
same,inhibition at 10 µM,NCI-H522,< 10%
same,inhibition at 10 µM,A549-ATCC,< 10%
same,inhibition at 10 µM,K-562,< 10%
same,inhibition at 10 µM,CCRF-CEM,< 10%
same,inhibition at 10 µM,NCI-H226,< 10%
same,inhibition at 10 µM,TK-10,13.2%
same,inhibition at 10 µM,MDA-MB-435,< 10%
same,inhibition at 10 µM,UACC-62,< 10%
same,inhibition at 10 µM,SN12C,< 10%
same,inhibition at 10 µM,LOX IMVI,< 10%
same,inhibition at 10 µM,UACC-257,12.6%
same,inhibition at 10 µM,KM12,< 10%
same,inhibition at 10 µM,IGROV1,< 10%
same,inhibition at 10 µM,SR,< 10%
same,inhibition at 10 µM,SF-295,< 10%
same,melting point,,229 to 231 °C
same,inhibition at 10 µM,NCI/ADR-RES,< 10%
same,inhibition at 10 µM,T-47D,< 10%
same,inhibition at 10 µM,SK-MEL-5,< 10%
same,inhibition at 10 µM,SNB-19,< 10%
same,inhibition at 10 µM,U251,< 10%
same,inhibition at 10 µM,CAKI-1,< 10%
